# From PMC3207004 (Clinical cancer research : an official journal of the …, 2011)
# Entries after “also recorded” stand apart in the source; their conditions may differ.
# How the values were obtained:
# [1] = human, in vivo
# [2] = no reference given, cited from earlier work
# [3] = cited from earlier work
# [4] = cited from earlier work; remark: listed apart in the source
# [5] = cited from earlier work; remark: listed apart in the source
# [6] = Phase I dose-escalation study: adverse events, DLT and tolerability in patients; conditions: drug-related; 33 patients
# [7] = 18 days after initiation of cycle 3
structure (smiles),measurement,setting,value
CC1(C)CC(=O)c2c(C(F)(F)F)nn(-c3ccc(C(N)=O)c(N[C@H]4CC[C@H](OC(=O)CN)CC4)c3)c2C1 [PF-04929113],"Edema, Grade 3",[1],0 Number of patients (%)
same,"Edema, Grade 4",[1],0 Number of patients (%)
same,"Emesis, Grade 1",[1],2 (6) Number of patients (%)
same,"Emesis, Grade 2",[1],1 (3) Number of patients (%)
same,"Emesis, Grade 3",[1],0 Number of patients (%)
same,"Emesis, Grade 4",[1],0 Number of patients (%)
same,"Fatigue, Grade 1",[1],4 (12) Number of patients (%)
same,"Fatigue, Grade 2",[1],2 (6) Number of patients (%)
same,"Fatigue, Grade 3",[1],0 Number of patients (%)
same,"Fatigue, Grade 4",[1],0 Number of patients (%)
same,"Flu-like symptoms, Grade 1",[1],1 (3) Number of patients (%)
same,"Flu-like symptoms, Grade 2",[1],0 Number of patients (%)
same,"Flu-like symptoms, Grade 3",[1],0 Number of patients (%)
same,"Flu-like symptoms, Grade 4",[1],0 Number of patients (%)
same,"Hyponatremia, Grade 1",[1],1 (3) Number of patients (%)
same,"Hyponatremia, Grade 2",[1],0 Number of patients (%)
same,"Hyponatremia, Grade 3",[1],0 Number of patients (%)
same,"Hyponatremia, Grade 4",[1],0 Number of patients (%)
same,"Hypophosphatemia, Grade 1",[1],0 Number of patients (%)
same,"Hypophosphatemia, Grade 2",[1],1 (3) Number of patients (%)
same,"Hypophosphatemia, Grade 3",[1],0 Number of patients (%)
same,"Hypophosphatemia, Grade 4",[1],0 Number of patients (%)
same,"Joint pain, Grade 1",[1],1 (3) Number of patients (%)
same,"Joint pain, Grade 2",[1],1 (3) Number of patients (%)
same,"Joint pain, Grade 3",[1],0 Number of patients (%)
same,"Joint pain, Grade 4",[1],0 Number of patients (%)
same,"Leukopenia, Grade 1",[1],2 (6) Number of patients (%)
same,"Leukopenia, Grade 2",[1],0 Number of patients (%)
same,"Leukopenia, Grade 3",[1],0 Number of patients (%)
same,"Leukopenia, Grade 4",[1],0 Number of patients (%)
same,"Lymphopenia, Grade 1",[1],2 (6) Number of patients (%)
same,"Lymphopenia, Grade 2",[1],6 (18) Number of patients (%)
same,"Lymphopenia, Grade 3",[1],0 Number of patients (%)
same,"Lymphopenia, Grade 4",[1],0 Number of patients (%)
same,"Muscle pain, Grade 1",[1],0 Number of patients (%)
same,"Muscle pain, Grade 2",[1],1 (3) Number of patients (%)
same,"Muscle pain, Grade 3",[1],0 Number of patients (%)
same,"Muscle pain, Grade 4",[1],0 Number of patients (%)
same,"Nausea, Grade 1",[1],8 (24) Number of patients (%)
same,"Nausea, Grade 2",[1],1 (3) Number of patients (%)
same,"Nausea, Grade 3",[1],0 Number of patients (%)
same,"Nausea, Grade 4",[1],0 Number of patients (%)
same,"Neutropenia, Grade 1",[1],1 (3) Number of patients (%)
same,"Neutropenia, Grade 2",[1],0 Number of patients (%)
same,"Neutropenia, Grade 3",[1],0 Number of patients (%)
same,"Neutropenia, Grade 4",[1],0 Number of patients (%)
same,"Thrombocytopenia, Grade 1",[1],4 (12) Number of patients (%)
same,"Thrombocytopenia, Grade 2",[1],0 Number of patients (%)
same,"Thrombocytopenia, Grade 3",[1],1 (3) Number of patients (%)
same,"Thrombocytopenia, Grade 4",[1],0 Number of patients (%)
same,"Weight loss, Grade 1",[1],1 (3) Number of patients (%)
same,"Weight loss, Grade 2",[1],0 Number of patients (%)
same,"Weight loss, Grade 3",[1],0 Number of patients (%)
same,"Weight loss, Grade 4",[1],0 Number of patients (%)
same,grade 3 AEs: AST elevation,[1],3%
same,grade 3 AEs: diarrhea,[1],9%
same,grade 3 AEs: non-septic arthritis,[1],3%
same,grade 3 AEs: thrombocytopenia,[1],3%
same,"Arthritis (non-septic), Grade 3",[1]; [7],1 (3) Number of patients (%)
same,Dose at which the DLT (non-septic arthritis) was noted,[1]; [7],16 mg/m^2/dose
same,Patients with visual symptoms (nictalopia and blurred vision),"[2]; another phase I study, daily administration",4 out of 20 and Four out of 20
same,Patients who complained of blurred vision,"[2]; daily administration, grade 1",one
same,Patients who complained of nictalopia,"[2]; daily administration, grade 1",Three
same,Onset of visual event after beginning the drug,"[2]; in most cases, daily administration",≤ 2 weeks
same,DLTs with daily administration,[2],"3 cases of grade 3 diarrhea, 1 case of grade 2 dehydration and grade 3 gastrointestinal hemorrhage and 1 case of grade 3 visual disturbance and grade 3 diarrhea"
same,Water solubility,[3],water soluble
same,Oral bioavailability,[4],orally bioavailable
same,Retinal damage in animal studies,"[5]; canine model, reports, no reference given",irreversible retinal damage
same,Retinal toxicity,"[5]; dog, in vivo",evidence of retinal toxicity
same,Grade 4 adverse events or deaths,[6],No grade 4 adverse events (AEs) were seen; also recorded: No drug-related grade 4 adverse events or deaths were seen
